Common to all, as to assay: Bacterial cross-tolerance testing of resistant mutant plasmids in SASX38, Arabidopsis protox-1 mutants
Common to all, as to format: cell-based
Design in all cases: key to Cross tolerance, AraC-1Val / Cross tolerance, AraC-2Cys / Cross tolerance, AraC-1Thr / Cross tolerance, AraC-3Thr / Cross tolerance, AraC-2Ile / Cross tolerance, AraC-2Cys + AraC425Ser: + = 10× or more tolerant than WT; ++ = 100× or more tolerant than WT; − = no cross tolerance

For assay [1], the target named is T1, plant protox mutants (Arabidopsis protox-1) in SASX38 (Arabidopsis thaliana, UniProt P55826, T56K/Y426C).
T1 construct: contains only 17 amino acids of the putative chloroplast transit peptide; expressed in transfected cells; host or cells: E. coli SASX38 (hemG mutant)
T1 sequence (P55826 41-537 T56K/Y426C): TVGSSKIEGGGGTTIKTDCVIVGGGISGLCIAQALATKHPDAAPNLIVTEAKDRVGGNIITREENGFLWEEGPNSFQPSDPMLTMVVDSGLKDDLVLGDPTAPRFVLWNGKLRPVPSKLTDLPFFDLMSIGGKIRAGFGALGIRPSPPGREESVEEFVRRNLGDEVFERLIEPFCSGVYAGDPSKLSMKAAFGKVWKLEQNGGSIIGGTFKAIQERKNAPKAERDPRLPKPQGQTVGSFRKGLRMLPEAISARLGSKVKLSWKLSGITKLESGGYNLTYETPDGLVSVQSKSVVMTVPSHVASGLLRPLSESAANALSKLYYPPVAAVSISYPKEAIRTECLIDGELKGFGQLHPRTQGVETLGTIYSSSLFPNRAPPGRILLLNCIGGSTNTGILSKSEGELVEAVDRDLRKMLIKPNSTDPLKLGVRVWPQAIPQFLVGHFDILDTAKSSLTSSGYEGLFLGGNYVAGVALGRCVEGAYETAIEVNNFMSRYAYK
Conditions: mutant AraC-2Cys vs WT plasmid in SASX38. How it is done: (§1) Resistant mutant plasmids, originally identified based on resistance against a single protox inhibitory herbicide, were tested against a spectrum of other protox inhibiting compounds. For this test, the SASX38 strain containing the wild-type plasmid is plated on a range of concentrations of each compound to determine the lethal concentration for each one. Resistant mutant plasmids in SASX38 are plated and scored for the ability to survive on a concentration of each compound at least 10 fold higher than the concentration that is lethal to the SASX38 strain containing the wild-type plasmid.

The target in assay [2] is T2, plant protox mutants (Arabidopsis protox-1) in SASX38 (Arabidopsis thaliana, UniProt P55826, A220T/T56K).
T2 construct: contains only 17 amino acids of the putative chloroplast transit peptide; expressed in transfected cells; host or cells: E. coli SASX38 (hemG mutant)
T2 sequence (P55826 41-537 T56K/A220T): as the sequence (P55826 41-537 T56K/Y426C) above, with A180T, C386Y counted along it
Conditions: mutant AraC-1Thr vs WT plasmid in SASX38. How it is done: as §1

The target of assay [3] is T3, plant protox mutants (Arabidopsis protox-1) in SASX38 (Arabidopsis thaliana, UniProt P55826, N425S/T56K/Y426L).
T3 construct: contains only 17 amino acids of the putative chloroplast transit peptide; expressed in transfected cells; host or cells: E. coli SASX38 (hemG mutant)
T3 sequence (P55826 41-537 T56K/N425S/Y426L): as the sequence (P55826 41-537 T56K/Y426C) above, with N385S, C386L counted along it
The note with it: mutant AraC-2Leu + AraC425Ser. On the procedure: as §1

Assay [4] has as its target T4, plant protox mutants (Arabidopsis protox-1) in SASX38 (Arabidopsis thaliana, UniProt P55826, N425S/T56K/Y426C).
T4 construct: contains only 17 amino acids of the putative chloroplast transit peptide; expressed in transfected cells; host or cells: E. coli SASX38 (hemG mutant)
Conditions: mutant AraC-2Cys + AraC425Ser. How it is done:
as §1

The test system of assay [5] is plant protox mutants (Arabidopsis protox-1) in SASX38. Conditions: mutant AraC-3Thr vs WT plasmid in SASX38. On the procedure:
as §1

The target in assay [6] is T5, plant protox mutants (Arabidopsis protox-1) in SASX38 (Arabidopsis thaliana, UniProt P55826, A220L/T56K).
T5 construct: contains only 17 amino acids of the putative chloroplast transit peptide; expressed in transfected cells; host or cells: E. coli SASX38 (hemG mutant)
T5 sequence (P55826 41-537 T56K/A220L): as the sequence (P55826 41-537 T56K/Y426C) above, with A180L, C386Y counted along it
Conditions: mutant AraC-1Leu. How it is done:
as §1

The target of assay [7] is T6, plant protox mutants (Arabidopsis protox-1) in SASX38 (Arabidopsis thaliana, UniProt P55826, S305L/T56K/Y426I).
T6 construct: contains only 17 amino acids of the putative chloroplast transit peptide; expressed in transfected cells; host or cells: E. coli SASX38 (hemG mutant)
T6 sequence (P55826 41-537 T56K/S305L/Y426I): as the sequence (P55826 41-537 T56K/Y426C) above, with S265L, C386I counted along it
The note with it: mutant AraC-2Ile + AraC305Leu. On the procedure: as §1

In assay [8] the target is T7, plant protox mutants (Arabidopsis protox-1) in SASX38 (Arabidopsis thaliana, UniProt P55826, T56K/Y426I).
T7 construct: contains only 17 amino acids of the putative chloroplast transit peptide; expressed in transfected cells; host or cells: E. coli SASX38 (hemG mutant)
T7 sequence (P55826 41-537 T56K/Y426I): as the sequence (P55826 41-537 T56K/Y426C) above, with C386I counted along it
The note with it: mutant AraC-2Ile. On the procedure: as §1

T4 sequence (P55826 41-537 T56K/N425S/Y426C): as the sequence (P55826 41-537 T56K/Y426C) above, with N385S counted along it

With `CCOC(=O)COC(=O)c1cc(Oc2ccc(C(F)(F)F)cc2Cl)ccc1[N+](=O)[O-]` [IV], the “Cross tolerance, AraC-2Cys” value in assay [1] is given as “−”. In assay [2], the “Cross tolerance, AraC-1Thr” value is listed as “++ (++ = 100× or more tolerant than WT)”. Moreover, the “Cross tolerance, AraC-2Leu + AraC425Ser” value in assay [3] is “+ (+ = 10× or more tolerant than WT)”. Besides, the “Cross tolerance, AraC-2Cys + AraC425Ser” value in assay [4] is listed as “−”. Also, in assay [5], the “Cross tolerance, AraC-3Thr” value is “++ (++ = 100× or more tolerant than WT)”. Further, in assay [6], the “Cross tolerance, AraC-1Leu” value is on record as “++ (++ = 100× or more tolerant than WT)”. In addition, the “Cross tolerance, AraC-2Ile + AraC305Leu” value in assay [7] is reported as “+ (+ = 10× or more tolerant than WT)”. Moreover, in assay [8], the “Cross tolerance, AraC-2Ile” value is given as “−”.
`COC(=O)CSc1cc(N=c2sc(=O)n3n2CCCC3)c(F)cc1Cl` [VIIa]: the “Cross tolerance, AraC-2Cys” value in assay [1] is listed as “+ (+ = 10× or more tolerant than WT)”. Also, in assay [2], the “Cross tolerance, AraC-1Thr” value was “+ (+ = 10× or more tolerant than WT)”. The “Cross tolerance, AraC-2Leu + AraC425Ser” value in assay [3] was “++ (++ = 100× or more tolerant than WT)”. The “Cross tolerance, AraC-2Cys + AraC425Ser” value in assay [4] is “++ (++ = 100× or more tolerant than WT)”. Also, in assay [5], the “Cross tolerance, AraC-3Thr” value is reported as “−”. For the same compound, the “Cross tolerance, AraC-1Leu” value in assay [6] is on record as “++ (++ = 100× or more tolerant than WT)”. In addition, the “Cross tolerance, AraC-2Ile + AraC305Leu” value in assay [7] is on record as “++ (++ = 100× or more tolerant than WT)”. Besides, the “Cross tolerance, AraC-2Ile” value in assay [8] was “++ (++ = 100× or more tolerant than WT)”.
In the case of `CCCCCOC(=O)COc1cc(N2C(=O)C3=C(CCCC3)C2=O)c(F)cc1Cl` [XIV], the “Cross tolerance, AraC-2Cys” value in assay [1] was “−”. The “Cross tolerance, AraC-1Thr” value in assay [2] was “+ (+ = 10× or more tolerant than WT)”. Moreover, in assay [3], the “Cross tolerance, AraC-2Leu + AraC425Ser” value was “++ (++ = 100× or more tolerant than WT)”. The “Cross tolerance, AraC-2Cys + AraC425Ser” value in assay [4] was “−”. Besides, in assay [5], the “Cross tolerance, AraC-3Thr” value was “+ (+ = 10× or more tolerant than WT)”. For the same compound, the “Cross tolerance, AraC-1Leu” value in assay [6] is given as “++ (++ = 100× or more tolerant than WT)”. In assay [7], the “Cross tolerance, AraC-2Ile + AraC305Leu” value was “++ (++ = 100× or more tolerant than WT)”. Moreover, in assay [8], the “Cross tolerance, AraC-2Ile” value is “++ (++ = 100× or more tolerant than WT)”.
On to `CC(C)OC(=O)c1cc(-n2c(=O)cc(C(F)(F)F)n(C)c2=O)ccc1Cl` [XI], for which the “Cross tolerance, AraC-2Cys” value in assay [1] was “+ (+ = 10× or more tolerant than WT)”. Moreover, in assay [2], the “Cross tolerance, AraC-1Thr” value is recorded as “+ (+ = 10× or more tolerant than WT)”. The “Cross tolerance, AraC-2Leu + AraC425Ser” value in assay [3] was “++ (++ = 100× or more tolerant than WT)”. The “Cross tolerance, AraC-2Cys + AraC425Ser” value in assay [4] is “++ (++ = 100× or more tolerant than WT)”. In addition, in assay [5], the “Cross tolerance, AraC-3Thr” value is “++ (++ = 100× or more tolerant than WT)”. The “Cross tolerance, AraC-1Leu” value in assay [6] is “++ (++ = 100× or more tolerant than WT)”. Also, in assay [7], the “Cross tolerance, AraC-2Ile + AraC305Leu” value is “++ (++ = 100× or more tolerant than WT)”. Moreover, the “Cross tolerance, AraC-2Ile” value in assay [8] is given as “++ (++ = 100× or more tolerant than WT)”.

(Values after patent publication US6808904B2, “Herbicide-tolerant protox genes produced by DNA shuffling” (priority 1994, dated 2004).)
